Results published in US20210317102A1, “INHIBITORS OF INTEGRATED STRESS RESPONSE PATHWAY” (Praxis Biotech LLC, priority 2019, published 2021).

What was measured:
[1] = system: ATF4 expression, HEK293T cells carrying the ATF4 luciferase reporter; experiment: ATF4 expression inhibition assay (ATF4 luciferase reporter); type: cell-based; conditions: Homo sapiens, HEK-293T, 100 nM thapsigargin, 3 hours
Procedure: The ATF4 reporter was prepared by fusing the human full length 5′UTR of ATF4 (NCBI Accession No. BC022088.2) upstream of the firefly luciferase coding sequence lacking the initiator methionine. The fused sequence was cloned into pLenti-EFla-C-Myc-DDK-IRES-Puro cloning vector (Origen #PS100085) using standard methods. Virus production was carried out by using Lenti-X™ Packaging Single Shots Protocol (Clonetech #631276). Viral particles were used to transduce HEK293T cells (ATCC #CRL-3216, ATCC Manassas, Va.), which were subsequently selected with puromycin to generate stable cell line. Cells were maintained at 37° C. and 5% CO2 in DMEM-F12 (Hyclone #SH30023.02) supplemented with 10% heat-inactivated fetal bovine serum (Gibco #16000-044), 2 mM L-glutamine (Gibco #25030-081), 100 U/ml penicillin, and 100 μg/ml streptomycin (Gibco #^15140-122).
HEK293T cells carrying the ATF4 luciferase reporter were plated on 96-well plates (Nunc) at 10,000 cells per well. Cells were treated two days after seeding with 100 nM thapsigargin (Tg) (Sigma-Aldrich #T9033) in the presence of different concentrations of selected compounds ranging from 1 nM to 10 μM. Cells without treatment or cells treated with Tg alone were used as controls. Assay plates containing cells were incubated for 3 hours at 37° C.
Luciferase reactions were performed using Luciferase Assay System (Promega #E1501) as specified by the manufacturer. Luminescence was read with an integration time of 1 s and a gain of 110 using a Cytation-5 multi-mode microplate reader (BioTek). Relative luminescence units were normalized to Tg treatment (0% inhibition) and untreated cells (100% inhibition) and the percentage of ATF4 inhibition was calculated.
Accordingly, inhibition of ATF4 expression as a result of the test compound indicates suppression of the ISR pathway.

[2] = system: Chinese hamster ovary (CHO) cells; experiment: Protein synthesis assay (puromycin incorporation, western blot); type: cell-based; conditions: 2 hours, media alone = 100%; for activity at 1 µM: Cricetulus griseus, unstressed CHO cells (without Tg), 1 μM test compound, read-out: % Protein synthesis relative to untreated (1 μM test compound); for % Recovery of protein synthesis (1 μM test compound): stressed CHO cells, 300 nM Tg plus 1 μM test compound, Tg alone = 0%
Procedure: Chinese hamster ovary (CHO) cells were maintained at 37° C. and 5% CO2 in Dulbecco's Modified Eagle's Media (DMEM) supplemented with 10% fetal bovine serum, 2 mM L-glutamine, 100 U/ml penicillin, and 100 μg/ml streptomycin. After reaching 80% of confluence, cells were detached and seeded on 6 well plates in complete media, allowed to recover overnight and treated for 2 hours with 1 μM of the test compound (to assess protein synthesis levels in unstressed condition), or for 2 hours with 300 nM Tg in the presence of 1 μM of the test compound (to assess the recovery of protein synthesis in a stressed condition). Cells with Tg alone were used as controls.
After the 2 hours treatments, media were replaced by adding 10 μg/ml puromycin (Sigma Aldrich #P8833) in complete media for 30 min. Media were removed and cells were lysed with SDS-PAGE lysis buffer. Lysates were transferred to 1.5 ml tubes and sonicated for 3 min and total protein amount were quantified using BCA Protein Assay Kit (Pierce). Equal amount of protein (30 μg) was loaded on SDS-PAGE gels. Proteins were transferred onto […] PVDF membranes (BioRad) and probed with primary antibodies diluted in Tris-buffered saline supplemented with 0.1% Tween 20 (Merck #S6996184 505) and 3% bovine serum albumin (Rockland #BSA-50).
Puromycin (12D10) (Merck #MABE343) and j-actin (Sigma Aldrich #A5441) antibodies were used as primary antibody. A HRP-conjugated secondary antibody (Rockland) was employed to detect immune-reactive bands using enhanced chemiluminescence (ECL Western Blotting Substrate, Pierce). Quantification of protein bands was done by densitometry using ImageJ software.
Percent increase of protein synthesis in unstressed cells (without Tg treatment) in the presence of media alone or certain test compounds is shown in Table 3. The percentage levels were normalized to the media alone condition, which correspond to 100% protein synthesis.
Percent recovery of protein synthesis in stressed cells (with Tg treatment) due to the test compounds at 1 μM is also shown in Table 3. The levels were normalized to the media alone and Tg alone conditions, which correspond to 100% and 0% respectively.

SMILES	IC50 [1] [nM]	activity at 1 µM [2] [%]	% Recovery of protein synthesis (1 μM test compound) [2] [%]
O=C(NN1CCC(CNC(=O)c2cc3cc(Cl)ccc3o2)CC1)c1ccc2cc(Cl)ccc2n1 [Compound 96, 6-chloro-N-(4-((5-chlorobenzofuran-2-carboxamido)methyl)piperidin-1-yl)quinoline-2-carboxamide]	1.05	258	–
O=C(COc1ccc(Cl)cc1)N[C@H]1CC[C@H](NC(=O)C2CNc3ccc(Cl)cc3O2)CC1 (stereo partly drawn) [Compound 94, trans-7-chloro-N-(4-(2-(4-chlorophenoxy)acetamido)cyclohexyl)-3,4-dihydro-2H-benzo[b] [1,4]oxazine-2-carboxamide]	35.8	103	58.4
O=C(COc1ccc(Cl)cc1)NN1CCC(CNC(=O)Nc2ccc(Cl)cc2)CC1 [Compound 99, 2-(4-chlorophenoxy)-N-(4-((3-(4-chlorophenyl)ureido)methyl)piperidin-1-yl)acetamide]	14.5	-42	122.3
CCN1C[C@H](C(=O)N[C@H]2CC[C@H](NC(=O)COc3ccc(Cl)cc3)CC2)Oc2ccc(Cl)cc21 [Compound 88, trans-(R)-6-chloro-N-(4-(2-(4-chlorophenoxy)acetamido)cyclohexyl)-4-ethyl-3,4-dihydro-2H-benzo[b][1,4]oxazine-2-carboxamide]	> 1000	105	28.6
O=C(COc1ccc(Cl)c(F)c1)N[C@H]1CC[C@H](CNC(=O)c2ccc(Cl)cn2)CC1 [Compound 19, trans-5-chloro-N-((4-(2-(4-chloro-3-fluorophenoxy)acetamido)cyclohexyl)methyl)picolinamide]	20.1	131	32.5
O=C(NCC1CCN(CC(O)COc2ccc(Cl)c(F)c2)CC1)c1cc2cc(Cl)ccc2o1 (stereo not drawn) [Compound 6, 5-chloro-N-((1-(3-(4-chloro-3-fluorophenoxy)-2-hydroxypropyl)piperidin-4-yl)methyl)benzofuran-2-carboxamide]	< 1000	179	–
O=C(COc1ccc(Cl)c(F)c1)NN1CCC(CNC(=O)c2ccc(Cl)cn2)CC1 [Compound 98, 5-chloro-N-((1-(2-(4-chloro-3-fluorophenoxy)acetamido)piperidin-4-yl)methyl)picolinamide]	30.4	-24.9	124.5
O=C(COc1cccc(Cl)c1)NC[C@H]1CC[C@H](NC(=O)COc2ccc(Cl)c(F)c2)CC1 [Compound 30, trans-2-(4-chloro-3-fluorophenoxy)-N-(4-((2-(3-chlorophenoxy)acetamido)methyl)cyclohexyl)acetamide]	< 1000	110	0.4
O=C(COc1ccc(Cl)c(F)c1)N[C@H]1CC[C@H](CNC(=O)c2ccc3ccc(Cl)cc3n2)CC1 [Compound 24, trans-7-chloro-N-((4-(2-(4-chloro-3-fluorophenoxy)acetamido)cyclohexyl)methyl)quinoline-2-carboxamide]	> 1000	138	49.1
O=C(Cc1ccc(Cl)cc1)NC[C@H]1CC[C@H](NC(=O)COc2ccc(Cl)cc2)CC1 [Compound 84, trans-2-(4-chlorophenoxy)-N-(4-((2-(4-chlorophenyl)acetamido)methyl)cyclohexyl)acetamide]	18.3	135	35.0
NC(COc1ccc(Cl)c(F)c1)CN1CCC(NC(=O)c2ccc3cc(Cl)ccc3n2)CC1 (stereo not drawn) [Compound 1, N-(1-(2-amino-3-(4-chloro-3-fluorophenoxy)propyl)piperidin-4-yl)-6-chloroquinoline-2-carboxamide]	> 1000	167	233.4
O=C(COc1ccc(Cl)cc1)N[C@H]1CC[C@H](NC(=O)C2COc3ccc(Cl)cc3N2)CC1 (stereo partly drawn) [Compound 34, trans-6-chloro-N-(4-(2-(4-chlorophenoxy)acetamido)cyclohexyl)-3,4-dihydro-2H-benzo[b][1,4]oxazine-3-carboxamide]	> 1000	137	105.2
COc1cc(Cl)ccc1OCC(=O)N[C@H]1CC[C@H](NC(=O)COc2ccc(Cl)cc2)CC1 [Compound 90, trans-2-(4-chloro-2-methoxyphenoxy)-N-(4-(2-(4-chlorophenoxy)acetamido)cyclohexyl)acetamide]	61.5	116	–
O=C(COc1ccc(Cl)c(F)c1)N[C@H]1CC[C@H](CNC(=O)c2cnc(C(F)F)cn2)CC1 [Compound 21, trans-N-((4-(2-(4-chloro-3-fluorophenoxy)acetamido)cyclohexyl)methyl)-5-(difluoromethyl)pyrazine-2-carboxamide]	17.8	67.8	11.4
O=C(COc1ccc(Cl)c(F)c1)N[C@H]1CC[C@H](CNC(=O)c2ccc(Cl)c(F)c2)CC1 [Compound 23, trans-4-chloro-N-((4-(2-(4-chloro-3-fluorophenoxy)acetamido)cyclohexyl)methyl)-3-fluorobenzamide]	1.27	93	74.1
O=C(COc1ccc(Cl)c(F)c1)NN1CCC(CNC(=O)c2cc3cc(Cl)ccc3o2)CC1 [Compound 95, 5-chloro-N-((1-(2-(4-chloro-3-fluorophenoxy)acetamido)piperidin-4-yl)methyl)benzofuran-2-carboxamide]	2.9	191	133.4
O=C(NC[C@H]1CC[C@H](NC(=O)COc2ccc(Cl)c(F)c2)CC1)Nc1ccc(Cl)cc1 [Compound 28, trans-2-(4-chloro-3-fluorophenoxy)-N-(4-((3-(4-chlorophenyl)ureido)methyl)cyclohexyl)acetamide]	3.1	68	28.6
CN1C[C@H](C(=O)N[C@H]2CC[C@H](NC(=O)COc3ccc(Cl)cc3)CC2)Oc2ccc(Cl)cc21 [Compound 85, trans-(R)-6-chloro-N-(4-(2-(4-chlorophenoxy)acetamido)cyclohexyl)-4-methyl-3,4-dihydro-2H-benzo[b][1,4]oxazine-2-carboxamide]	44	124	31.6
CCN1CC(C(=O)N[C@H]2CC[C@H](NC(=O)COc3ccc(Cl)cc3)CC2)Oc2ccc(Cl)cc21 (stereo partly drawn) [Compound 87, trans-6-chloro-N-(4-(2-(4-chlorophenoxy)acetamido)cyclohexyl)-4-ethyl-3,4-dihydro-2H-benzo[b][1,4]oxazine-2-carboxamide]	90.2	147	71.8
O=C(COc1ccc(Cl)c(F)c1)N[C@H]1CC[C@H](CNC(=O)c2ccc(OC(F)(F)F)cc2)CC1 [Compound 18, trans-N-((4-(2-(4-chloro-3-fluorophenoxy)acetamido)cyclohexyl)methyl)-4-(trifluoromethoxy)benzamide]	5.63	105	60.0
